Structures are written as SMILES.

One assay relates to OPM2 cells. The assay is described as follows: Incucyte cell confluency, OPM2 cells. The class given is cell-based. Particulars: OPM2 shIRE1 cells, titration. Here is the method:
For non-adherent AMO1, KMS27, and OPM2 cells, cells were plated at 5000 cells/well in ultra-low attachment (ULA) 96-well plates (Costar, #7007) and centrifuged at 600 × g for 5 min for spheroid formation. For adherent U2OS and Colo201 cells, 2000 cells/well were seeded in a clear flat-bottom 96-well plate (Costar, #3595). Treatments were added at the time of cell seeding, and cells were cultured in complete RPMI media to a final volume of 200 µL/well. Cultures were maintained at 37 °C throughout the duration of the experiment. Cell confluency was tracked using the Incucyte live-cell imaging system (Sartorius S3). Picture frames were captured every 4 h with a 4× objective, and cell confluency (%) from the total well area as a function of time was calculated using the Incucyte software (version 2023 A Rev2).

The target of another assay is T1, IRE1 H579A:VHL (Homo sapiens, UniProt O75460+P40337, H579A).
T1 construct: N2731; host or cells: HEK293T
The assay is described as follows: NanoBRET IRE1:VHL interaction, IRE1 H579A, HEK293T cells. The class given is cell-based. Here is the method:
(§1) 8 × 10^5 293T cells per well were seeded in 6-well plates (Costar, #3516) and incubated at 37 °C, 5% CO2 for 6 h. A mixture of 0.2 µg ERN1 (IRE1)-NanoLuc Fusion Vector (Promega, NV1321), 2 µg HaloTag-VHL Fusion Vector (Promega, N2731), 6 µl FuGENE HD Transfection Reagent (Promega, E2311), and 100 µL Opti-MEM I reduced serum medium (Gibco, #31985062) per well was incubated at room temperature for 20 min before adding to cells. For expression of IRE1 mutants, site-directed mutagenesis was performed using the ERN1-NanoLuc Fusion Vector as the DNA template, and the transfection mixture was prepared in the same way as WT IRE1. After 18 h, cells from 6-well plates were trypsinized, resuspended in Opti-MEM I reduced serum medium, and reseeded into 96-well plates (Costar, #3917), with or without the addition of HaloTag NanoBRET 618 Ligand (Promega, G9801). After 18 h of incubation, a titration of G6374 (dilutions made in Opti-MEM I reduced serum medium) was added to the cells. After 2 h of G6374 treatment, NanoBRET Nano-Glo Substrate (Promega, N1571) was added to cells. The 96-well plates were imaged by GloMax Discover Microplate Reader (Promega, GM3000) with the default “BRET: NanoBRET 618” protocol (Donor: 450 BP; Acceptor: 600 LP; Integration: 0.3 s). Data analysis was performed according to the user manual.

Assay [1] deals with IRE1. More on the design: method as in earlier work. Particulars: VHL:G6374:IRE1; cited from earlier work.
Assay [2] concerns the target T2, IRE1.KR with recombinant CRL2^VHL complex (Homo sapiens, UniProt O75460+P40337).
T2 construct: Recombinant human IRE1.KR (G547-L977) was purified using an established protocol; His6 (with TEV protease cleavage site) (N, cleaved yes); made in house; host or cells: Sf9 (IRE1.KR)
The assay is described as follows: In vitro ubiquitination of recombinant IRE1.KR by CRL2^VHL. The class given is biochemical. The note with it: 0.2 µM IRE1, 0.2 µM G6374, UBE2R1, native ubiquitin. The procedure: The protocol for the in vitro ubiquitination experiment was adapted from a previous publication.
The ubiquitination reaction buffer contained 30 mM Tris pH 7.5, 100 mM NaCl, 5 mM MgCl2, 2 mM ATP, and 2 mM DTT. Recombinant proteins and G6374 with high stock concentrations were pre-diluted in binding buffer containing 30 mM Tris, pH 7.5, 100 mM NaCl, 1 mM DTT for the purpose of accurate pipetting.
The 0.2 µM IRE1: 0.2 µM G6374 (or DMSO) complex was pre-incubated for 15 min at room temperature, then incubated with the neddylation reaction mixture containing 0.2 µM VHL:EloB:EloC, 0.2 µM CUL2-RBX1, 0.1 µM NAE1:UBA3, 1 μM UBE2M, 3 μM NEDD8 for another 15 min at room temperature. Meanwhile, the ubiquitination reaction mixture containing 1 μM UBE1, 5 μM UBE2R1 (or UBE2D1, UBE2D2), and 500 μM ubiquitin or methyl-ubiquitin was prepared and pre-incubated for 15 min before incubation with the neddylation reaction mixture containing IRE1:G6374. Samples were taken at each timepoint and quenched in NuPage LDS buffer supplemented with NuPAGE sample reducing agent, then boiled at 95 °C for 10 min. Ubiquitinated products were visualized by IB with the IRE1 antibody.

For a further assay, the target named is T3, IRE1 E621A, E836A:VHL (Homo sapiens, UniProt O75460+P40337, E621A/E836A).
T3 construct: N2731; host or cells: HEK293T
The assay is described as follows: NanoBRET IRE1:VHL interaction, IRE1 E621A, E836A, HEK293T cells. The format is cell-based. The procedure:
as §1
On the technique in general: BRET reads energy transfer from a luciferase to a nearby fluorophore.

Assay [3] deals with IRE1 (Homo sapiens, UniProt O75460). The assay is described as follows: SelectScreen kinase profiling, IRE1. The class given is biochemical. Particulars: 1 µM, 1 h. The procedure: The kinome selectivity of G6374 was assessed at 1 μM for 1 h versus a panel of 220 human kinases (SelectScreen Kinase Profiling Services, Thermo Fisher Scientific). The assays were conducted using either the Z’-LYTE technology to assess inhibition of enzyme activity ([ATP] = Km) or the TR-FRET-based LanthaScreen Eu Kinase Binding assay to assess competitive displacement of an ATP site binding probe. Assay results were normalized to positive and negative controls to determine percent inhibition. Image was created by KNIME Report Designer (KNIME.com AG, Zurich, Switzerland). Kinases for which ATP binding was inhibited by more than 90% were further examined by IB analysis for depletion by G6374 in AMO1 cells (4 h incubation).
IRE1 (Homo sapiens, UniProt O75460), sequence (O75460 19-977): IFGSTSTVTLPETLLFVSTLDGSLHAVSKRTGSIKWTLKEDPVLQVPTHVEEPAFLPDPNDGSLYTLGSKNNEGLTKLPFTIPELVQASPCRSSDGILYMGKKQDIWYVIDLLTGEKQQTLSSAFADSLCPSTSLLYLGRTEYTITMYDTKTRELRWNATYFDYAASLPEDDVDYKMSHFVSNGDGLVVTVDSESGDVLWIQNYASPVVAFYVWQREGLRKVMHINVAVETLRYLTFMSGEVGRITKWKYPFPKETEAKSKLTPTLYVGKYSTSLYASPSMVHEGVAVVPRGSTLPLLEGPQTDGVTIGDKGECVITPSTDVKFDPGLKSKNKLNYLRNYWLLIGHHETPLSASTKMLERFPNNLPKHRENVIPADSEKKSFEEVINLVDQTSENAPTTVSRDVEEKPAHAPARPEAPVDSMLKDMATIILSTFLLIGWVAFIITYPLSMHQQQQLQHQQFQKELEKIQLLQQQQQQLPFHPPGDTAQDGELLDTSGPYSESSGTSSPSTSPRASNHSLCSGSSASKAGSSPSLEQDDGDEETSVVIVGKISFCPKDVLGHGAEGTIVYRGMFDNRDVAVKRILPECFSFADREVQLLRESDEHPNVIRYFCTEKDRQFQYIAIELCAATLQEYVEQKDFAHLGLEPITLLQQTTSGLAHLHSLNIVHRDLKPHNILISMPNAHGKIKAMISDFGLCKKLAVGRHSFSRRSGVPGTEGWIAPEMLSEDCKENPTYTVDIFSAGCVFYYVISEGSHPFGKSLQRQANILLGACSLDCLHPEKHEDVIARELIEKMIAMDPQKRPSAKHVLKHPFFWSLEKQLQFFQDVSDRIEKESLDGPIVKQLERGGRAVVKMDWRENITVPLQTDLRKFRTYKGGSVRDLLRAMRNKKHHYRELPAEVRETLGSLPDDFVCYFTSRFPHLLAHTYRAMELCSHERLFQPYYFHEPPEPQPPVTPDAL

T1 sequence (O75460 19-977 H579A): as the sequence (O75460 19-977) above, with H561A counted along it
T1 sequence (Q13617 whole entry, further chain): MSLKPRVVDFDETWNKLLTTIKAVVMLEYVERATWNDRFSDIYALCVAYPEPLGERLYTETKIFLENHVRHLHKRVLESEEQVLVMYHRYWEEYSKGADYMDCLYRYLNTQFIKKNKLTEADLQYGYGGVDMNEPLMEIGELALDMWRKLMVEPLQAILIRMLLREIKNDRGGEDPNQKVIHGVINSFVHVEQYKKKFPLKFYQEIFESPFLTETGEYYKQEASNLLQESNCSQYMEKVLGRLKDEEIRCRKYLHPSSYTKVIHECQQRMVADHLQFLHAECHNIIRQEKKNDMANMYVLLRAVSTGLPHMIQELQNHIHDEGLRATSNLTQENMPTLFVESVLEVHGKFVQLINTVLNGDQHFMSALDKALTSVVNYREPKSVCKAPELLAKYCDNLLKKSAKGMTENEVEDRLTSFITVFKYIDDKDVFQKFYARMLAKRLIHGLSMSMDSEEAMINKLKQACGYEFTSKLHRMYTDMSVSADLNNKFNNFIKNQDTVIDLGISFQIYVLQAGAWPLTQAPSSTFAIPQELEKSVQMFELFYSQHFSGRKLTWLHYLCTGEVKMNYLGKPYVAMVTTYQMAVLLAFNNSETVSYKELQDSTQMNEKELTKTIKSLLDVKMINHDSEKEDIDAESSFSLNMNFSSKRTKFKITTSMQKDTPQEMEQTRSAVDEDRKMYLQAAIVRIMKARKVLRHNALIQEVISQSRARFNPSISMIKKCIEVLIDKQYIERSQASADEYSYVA
T1 sequence (Q15370 whole entry, further chain): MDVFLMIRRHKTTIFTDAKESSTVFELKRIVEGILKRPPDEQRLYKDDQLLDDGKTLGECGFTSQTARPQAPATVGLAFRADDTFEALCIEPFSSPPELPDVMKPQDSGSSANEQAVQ
T1 sequence (P62877 whole entry, further chain): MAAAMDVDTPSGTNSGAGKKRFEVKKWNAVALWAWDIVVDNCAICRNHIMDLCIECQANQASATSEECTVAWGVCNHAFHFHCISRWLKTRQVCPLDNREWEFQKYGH
T1 sequence (P40337 whole entry): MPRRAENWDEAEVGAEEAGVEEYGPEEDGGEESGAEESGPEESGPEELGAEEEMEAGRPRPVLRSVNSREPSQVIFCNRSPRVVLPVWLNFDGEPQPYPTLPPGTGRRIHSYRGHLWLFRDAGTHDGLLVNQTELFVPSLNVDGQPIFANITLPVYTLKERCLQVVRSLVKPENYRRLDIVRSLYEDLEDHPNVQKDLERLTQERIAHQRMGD
T1 sequence (Q15369 whole entry, further chain): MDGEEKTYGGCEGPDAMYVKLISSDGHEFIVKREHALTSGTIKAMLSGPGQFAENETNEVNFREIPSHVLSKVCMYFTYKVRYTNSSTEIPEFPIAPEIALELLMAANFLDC
T3 sequence (P62877 whole entry): as the sequence (P62877 whole entry, further chain) above
T3 sequence (Q15370 whole entry, further chain): as the sequence (Q15370 whole entry, further chain) above
T3 sequence (Q15369 whole entry, further chain): as the sequence (Q15369 whole entry, further chain) above
T3 sequence (Q13617 whole entry, further chain): as the sequence (Q13617 whole entry, further chain) above
T3 sequence (P40337 whole entry): as the sequence (P40337 whole entry) above
T3 sequence (O75460 19-977 E621A/E836A): as the sequence (O75460 19-977) above, with E603A, E818A counted along it

The term EC50 denotes the concentration that produces a half-maximal response. On to `Cc1ncsc1-c1ccc(CNC(=O)[C@@H]2C[C@@H](O)CN2C(=O)[C@@H](NC(=O)CCCCN2CCN([C@H]3CC[C@H](Nc4ncc5ccc(=O)n(C(C)C)c5n4)CC3)CC2)C(C)(C)C)cc1` [G6374], for which the “growth inhibition (cell confluency)” value in the assay with OPM2 cells was “concentration-dependent growth inhibition”. For the same compound, the EC50 at IRE1 H579A:VHL came to 450 ± 60 nM; at IRE1 E621A, E836A:VHL it was 50 ± 20 nM. Moreover, the Dmax in the assay on IRE1 [1] is given as 95%. Besides, in assay [2], the “IRE1.KR polyubiquitination in vitro” value is recorded as “clear G6374-dependent IRE1 polyubiquitination”. Moreover, the “inhibition of IRE1” value on IRE1 [3] is listed as “complete inhibition”.

(Values after publication PMC12749748, “Chemically-induced degradation of the endoplasmic-reticulum stress sensor IRE1 by a VHL-recruiting chimera” (Nature Communications, 2025).)
